In ChEMBL document CHEMBL1147420, “Synthesis and biological evaluation of novel coumarin derivatives with a 7-azomethine linkage” (2004):

How the values were obtained:
Type in all cases: functional
[1] = Interaction percent with DPPH after 20 minutes was determined at 0.2 mM concentration
[2] = Interaction percent with DPPH after 60 minutes was determined at 0.5 mM concentration
[3] = target: T1, Beta-glucuronidase (Bos taurus) (UniProt A3KMY8); assay: Compound was evaluated for in vitro inhibition of beta-glucuronidase at 0.1 mM concentration
T1 sequence (whole entry): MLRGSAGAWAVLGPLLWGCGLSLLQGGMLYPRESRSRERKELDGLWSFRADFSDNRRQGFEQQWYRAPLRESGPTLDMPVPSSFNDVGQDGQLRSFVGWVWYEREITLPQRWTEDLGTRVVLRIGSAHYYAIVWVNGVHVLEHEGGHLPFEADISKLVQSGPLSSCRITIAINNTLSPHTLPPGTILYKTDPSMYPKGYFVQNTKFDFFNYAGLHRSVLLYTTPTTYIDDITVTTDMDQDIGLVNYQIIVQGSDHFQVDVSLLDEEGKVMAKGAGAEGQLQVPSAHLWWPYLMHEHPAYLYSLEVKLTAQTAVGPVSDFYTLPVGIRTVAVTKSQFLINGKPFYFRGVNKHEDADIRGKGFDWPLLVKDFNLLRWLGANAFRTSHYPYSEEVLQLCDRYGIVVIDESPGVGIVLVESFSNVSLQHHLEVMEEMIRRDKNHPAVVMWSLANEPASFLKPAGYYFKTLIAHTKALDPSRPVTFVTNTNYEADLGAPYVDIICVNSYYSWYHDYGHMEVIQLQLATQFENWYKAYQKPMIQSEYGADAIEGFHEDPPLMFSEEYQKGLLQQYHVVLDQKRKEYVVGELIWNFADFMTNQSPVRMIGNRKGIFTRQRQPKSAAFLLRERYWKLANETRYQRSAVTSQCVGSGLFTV

[4] = Interaction percent with DPPH after 60 minutes was determined at 0.2 mM concentration
[5] = target: Chymotrypsinogen B (Homo sapiens) (UniProt P17538); assay: Compound was evaluated for in vitro inhibition of chymotrypsinogen acting as esterase at 1 mM concentration
[6] = target: Serine protease 1 (Homo sapiens) (UniProt P07477); assay: Compound was evaluated for in vitro inhibition of trypsin induced proteolysis at 0.1 mM concentration
[7] = target: T2, Seed linoleate 13S-lipoxygenase-1 (Glycine max) (UniProt P08170); assay: Compound was evaluated for in vitro inhibition of soybean lipoxygenase at 1 mM concentration
T2 sequence (whole entry): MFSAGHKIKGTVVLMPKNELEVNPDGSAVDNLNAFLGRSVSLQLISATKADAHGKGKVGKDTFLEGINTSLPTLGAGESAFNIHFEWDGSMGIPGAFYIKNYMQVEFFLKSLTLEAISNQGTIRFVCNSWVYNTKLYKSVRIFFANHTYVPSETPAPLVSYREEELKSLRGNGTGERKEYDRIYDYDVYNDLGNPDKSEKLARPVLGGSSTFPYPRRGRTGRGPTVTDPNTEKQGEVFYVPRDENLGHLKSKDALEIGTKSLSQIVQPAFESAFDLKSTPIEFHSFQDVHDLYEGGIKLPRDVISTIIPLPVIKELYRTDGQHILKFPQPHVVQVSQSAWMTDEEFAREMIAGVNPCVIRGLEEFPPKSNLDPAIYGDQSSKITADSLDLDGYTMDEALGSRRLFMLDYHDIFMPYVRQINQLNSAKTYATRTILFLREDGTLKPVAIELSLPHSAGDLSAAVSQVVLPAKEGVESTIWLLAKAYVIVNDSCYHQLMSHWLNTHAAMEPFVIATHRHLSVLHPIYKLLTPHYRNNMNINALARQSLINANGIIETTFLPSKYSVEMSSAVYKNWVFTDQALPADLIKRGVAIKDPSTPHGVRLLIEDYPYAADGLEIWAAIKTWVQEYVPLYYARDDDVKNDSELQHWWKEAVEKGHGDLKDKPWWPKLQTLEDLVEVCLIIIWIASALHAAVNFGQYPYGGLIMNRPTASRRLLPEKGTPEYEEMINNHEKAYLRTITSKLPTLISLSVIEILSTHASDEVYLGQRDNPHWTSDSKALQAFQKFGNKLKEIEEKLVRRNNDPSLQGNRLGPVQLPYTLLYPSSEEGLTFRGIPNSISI

[8] = target: Chymotrypsinogen B (Homo sapiens) (UniProt P17538); assay: Compound was evaluated for in vitro inhibition of chymotrypsinogen induced proteolysis at 1 mM concentration
[9] = Competition percent of compound with DMSO for hydroxyl radical was determined at 0.01 mM concentration
[10] = target: Chymotrypsinogen B (Homo sapiens) (UniProt P17538); assay: Compound was evaluated for in vitro inhibition of chymotrypsinogen acting as esterase at 0.1 mM concentration
[11] = target: Serine protease 1 (Homo sapiens) (UniProt P07477); assay: Compound was evaluated for in vitro inhibition of trypsin acting as esterase at 0.1 mM concentration
[12] = target: Serine protease 1 (Homo sapiens) (UniProt P07477); assay: Compound was evaluated for in vitro inhibition of trypsin induced proteolysis at 1 mM concentration
[13] = Competition percent of compound with DMSO for hydroxyl radical was determined at 0.1 mM concentration
[14] = Compound was evaluated for percent inhibition of carrageenan induced rat paw edema at 0.005 mmol/kg
[15] = target: T1, Beta-glucuronidase (Bos taurus); assay: Compound was evaluated for in vitro inhibition of beta-glucuronidase at 1 mM concentration
[16] = Interaction percent with DPPH after 20 minutes was determined at 0.1 mM concentration
[17] = target: Serine protease 1 (Homo sapiens) (UniProt P07477); assay: Compound was evaluated for in vitro inhibition of trypsin acting as esterase at 1 mM concentration
[18] = Interaction percent with DPPH after 20 minutes was determined at 0.5 mM concentration
[19] = Interaction percent with DPPH after 60 minutes was determined at 0.1 mM concentration
[20] = target: T2, Seed linoleate 13S-lipoxygenase-1 (Glycine max); assay: Compound was evaluated for in vitro inhibition of soybean lipoxygenase at 0.1 mM concentration
[21] = target: Chymotrypsinogen B (Homo sapiens) (UniProt P17538); assay: Compound was evaluated for in vitro inhibition of chymotrypsinogen induced proteolysis at 0.1 mM concentration
[22] = target: Serine protease 1 (Homo sapiens) (UniProt P07477); assay: Compound was evaluated for in vitro inhibition of trypsin induced proteolysis at 0.1 mM concentration; no action
[23] = target: Chymotrypsinogen B (Homo sapiens) (UniProt P17538); assay: Compound was evaluated for in vitro inhibition of chymotrypsinogen induced proteolysis at 0.1 mM concentration; no action
[24] = target: T1, Beta-glucuronidase (Bos taurus); assay: Compound was evaluated for in vitro inhibition of beta-glucuronidase at 0.1 mM concentration; […]
[25] = Competition percent of compound with DMSO for hydroxyl radical was determined at 0.1 mM concentration; No result
[26] = target: T2, Seed linoleate 13S-lipoxygenase-1 (Glycine max); assay: Compound was evaluated for in vitro inhibition of soybean lipoxygenase at 0.1 mM concentration; no action

Chymotrypsinogen B (Homo sapiens), sequence (P17538 34-164 limits assumed, other chains not shown): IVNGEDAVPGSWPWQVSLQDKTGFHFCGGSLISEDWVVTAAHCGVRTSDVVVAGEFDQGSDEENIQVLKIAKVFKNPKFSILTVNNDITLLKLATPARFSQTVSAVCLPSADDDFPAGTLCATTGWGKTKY
Chymotrypsinogen B (Homo sapiens), sequence (P17538 167-263 limits assumed, other chains not shown): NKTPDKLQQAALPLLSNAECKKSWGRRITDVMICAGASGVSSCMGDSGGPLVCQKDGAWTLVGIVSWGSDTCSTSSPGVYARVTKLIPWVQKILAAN
Serine protease 1 (Homo sapiens), sequence (P07477 whole entry): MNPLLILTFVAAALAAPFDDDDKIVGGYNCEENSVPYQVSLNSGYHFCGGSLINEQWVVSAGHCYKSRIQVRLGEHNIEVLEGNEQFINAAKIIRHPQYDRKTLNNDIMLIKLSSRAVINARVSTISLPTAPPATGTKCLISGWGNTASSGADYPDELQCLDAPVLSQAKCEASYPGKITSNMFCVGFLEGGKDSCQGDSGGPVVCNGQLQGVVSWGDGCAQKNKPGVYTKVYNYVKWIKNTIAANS

| Structure (SMILES) | RA [1] [%] | RA [2] [%] | inhibition [3] [%] | RA [4] [%] | inhibition [5] [%] | inhibition [6] [%] | inhibition [7] [%] | inhibition [8] [%] | Competition [9] [%] | inhibition [10] [%] | inhibition [11] [%] | inhibition [12] [%] | Competition [13] [%] | inhibition in vivo at 5 µmol/kg [14] [%] | inhibition [15] [%] | RA [16] [%] | inhibition [17] [%] | RA [18] [%] | RA [19] [%] | inhibition [20] [%] | other results |
| --- | --- | --- | --- | --- | --- | --- | --- | --- | --- | --- | --- | --- | --- | --- | --- | --- | --- | --- | --- | --- | --- |
| O=c1ccc2ccc(/C=N/c3ccccc3)cc2o1 | 13.5 | 11.6 | 26.1 | 10.6 | 83.4 | 35.3 | 100 | 73.9 | 72.2 | 10 | 22.6 | 95.9 | 89.6 | 42.5 | 95.4 | 12.9 | 97.6 | 14.3 | 10 | 54.3 | inhibition [21]: 90.5% |
| O=c1ccc2ccc(/C=N/Nc3ccccc3)cc2o1 | 48.9 | 79.1 | 5.9 | 64.4 | 88.7 |  | 71.2 | 80.1 | 15.4 | 30.6 | 31.4 | 64.5 | 65.5 | 35.2 | 96.8 | 36.2 | 99.9 | 78.7 | 56.2 | 77.4 | inhibition [22]: No action; inhibition [23]: No action |
| O=Cc1ccc2ccc(=O)oc2c1 | 2.49 | 12.8 |  | 7.1 | 98.9 | 83.4 | 89.7 | 96.6 | 33.9 | 22.7 | 12.6 | 100 | 35.2 | 29.3 | 98.9 | 1.47 | 99.1 | 16.2 | 3.5 | 8.6 | inhibition [24]: No action; inhibition [21]: 32.8% |
| CN/N=C/c1ccc2ccc(=O)oc2c1 | 84.8 | 87.3 | 6.9 | 86.7 | 83.4 |  | 100 | 93.9 | 97.3 | 10 | 22.6 | 100 |  | 54.7 | 93.3 | 69.7 | 97.6 | 92.4 | 80.7 | 70.8 | inhibition [22]: No action; Competition [25]: No results; inhibition [23]: No action |
| Cc1ccc2ccc(=O)oc2c1 | 1.61 | 3.5 |  | 5.4 | 97.7 | 90.4 | 88.9 | 97.4 | 30.2 | 16.4 | 13.6 | 100 | 43.8 | 55.1 | 95.9 | 0.29 | 88.7 | 2.05 | 2.5 | 73.5 | inhibition [24]: No action; inhibition [21]: 48.1% |
| CC(O)Cc1ccc2ccc(=O)oc2c1 (stereo not given) | 18.4 | 25.6 | 7.5 | 16.8 | 100 | 41.1 | 100 | 63.1 | 80.7 | 31.3 | 29.3 | 95.4 | 81.8 | 18 | 92.3 | 14.5 | 99.4 | 22.9 | 13.3 |  | inhibition [26]: No action; inhibition [23]: No action |
| O=c1ccc2ccccc2o1 [COUMARIN] |  | 6.7 |  |  | 63.9 | 12.7 | 15.1 | 89.3 |  | 28.5 | 5 | 95.9 | 78 | 30.2 |  | 4.9 | 98 | 5.8 | 21 |  | inhibition [21]: No action |
| COc1ccc2c(c1)c(CC(=O)O)c(C)n2C(=O)c1ccc(Cl)cc1 [INDOMETHACIN] |  |  |  |  |  |  |  |  |  |  |  |  |  | 47 |  |  |  |  |  |  |  |
| O=c1ccc2ccc(/C=N/N=C/c3ccc4ccc(=O)oc4c3)cc2o1 | 6.3 | 67.5 | 2.3 | 8.4 | 65.2 | 99.9 | 10.2 | 100 | 44.5 | 29.9 | 9.4 | 100 | 45.3 | 54 | 100 | 7.04 | 65.4 | 64.4 | 9.9 | 8.6 | inhibition [21]: 24.5% |
| CO/N=C/c1ccc2ccc(=O)oc2c1 | 14.5 | 11.9 | 21.9 | 11.6 | 100 | 100 | 100 | 56.9 | 85.6 | 16.6 | 25.5 | 100 | 90.2 | 31.1 | 94.1 | 12.7 | 99.9 | 13.9 | 9.8 |  | inhibition [26]: No action; inhibition [23]: No action |
| O=c1ccc2ccc(/C=N/O)cc2o1 | 3.52 | 12.8 |  | 7.1 | 100 | 70.7 | 98.8 | 98.7 | 43.4 | 28.5 | 20.3 | 77.7 | 50.8 | 58.6 | 100 | 0.29 | 98.5 | 9.7 | 4.8 | 37.2 | inhibition [24]: No action; inhibition [21]: 37.4% |
